Values after ≈ are worked out from the molar mass of the structure shown. Values joined by “and” are separate entries in the source; they are usually repeats but may differ in a detail not shown here. Equal entries are not always repeated. “Also recorded” adds a separate entry of the source.
Tests used:
C. perfringens NA = type: biochemical; conditions: for IC50 NA-C. perfringens / IC50: MUNANA substrate; for IC50 NA-C. perfringens: nd = no detection
H1N1 NA = H1N1 NA (Influenza A virus, UniProt Q9IGQ6); experiment: biochemical; type: biochemical
[1] = test system: endonuclease activity of RNA polymerase in influenza A virus; design: method as in earlier work; conditions: ref 40 (Kuzuhara et al. 2009); cited from earlier work
[2] = test system: influenza virus replication; design: method as in PMID 16137775; conditions: in vitro; cited from earlier work

Sequence of H1N1 NA (Q9IGQ6 whole entry, looked up): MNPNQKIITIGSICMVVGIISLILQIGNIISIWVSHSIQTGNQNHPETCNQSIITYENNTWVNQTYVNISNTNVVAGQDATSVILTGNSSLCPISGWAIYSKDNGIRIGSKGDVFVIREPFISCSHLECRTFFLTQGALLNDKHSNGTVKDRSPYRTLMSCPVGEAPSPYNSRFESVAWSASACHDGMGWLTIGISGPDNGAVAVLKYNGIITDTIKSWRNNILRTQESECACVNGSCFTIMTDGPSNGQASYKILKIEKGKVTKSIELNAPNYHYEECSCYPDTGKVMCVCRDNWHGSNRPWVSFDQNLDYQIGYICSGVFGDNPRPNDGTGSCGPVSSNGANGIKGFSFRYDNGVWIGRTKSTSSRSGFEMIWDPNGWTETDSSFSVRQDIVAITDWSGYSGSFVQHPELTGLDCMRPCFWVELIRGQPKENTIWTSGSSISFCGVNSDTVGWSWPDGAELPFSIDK

Structure (SMILES): CC(=O)N[C@H]1[C@H]([C@H](O)[C@H](O)CO)OC(C(=O)O)=C[C@@H]1O [DANA, 2,3-didehydro-2-deoxy-N-acetylneuraminic acid, reference compound]
- IC50 NA-C. perfringens (C. perfringens NA): 28.79 µg/mL (≈ 98.8 µM)

Structure (SMILES): C[C@H]1C(=O)CC[C@@H]2[C@]1(C)CC[C@H]1[C@@]2(C)CC[C@@]2(C)[C@@H]3CC(C)(C)CC[C@]3(C)CC[C@]12C [GC1, Friedeline]
- activity against C. perfringens NA (in words) (C. perfringens NA): not active
- activity against H1N1 NA (in words) (H1N1 NA): inactive

Structure (SMILES): Oc1cc(O)c2c(c1)OC(c1ccc(O)c(O)c1)C(O)C2 (stereo not drawn) [GC4, catechin]
- inhibition of endonuclease activity of RNA polymerase (in words) [1]: inhibited
- activity against C. perfringens NA (in words) (C. perfringens NA): moderately active; also recorded: moderate activity
- IC50 (C. perfringens NA): 60.3 µM
- IC50 NA-C. perfringens (C. perfringens NA): 17.48 µg/mL (≈ 60.2 µM)
- inhibition of influenza virus replication (in words) [2]: good inhibition
- activity against H1N1 NA (in words) (H1N1 NA): moderately active; also recorded: moderate activity
- IC50 (H1N1 NA; IC50 H1N1 NA): 91 µM
- IC50 (H1N1 NA; IC50 NA-H1N1): 90.6 µM

Structure (SMILES): COC(=O)/C(C)=C/C(O)CC(C)C1(C)CC=C2C3CCC4C(C)(C)C(O)CCC4(C)C3(O)CCC21C (stereo not drawn) [GC2, Methyl (24E)-3a,9,23-trihydroxy-17,14-friedolanostan-14,24-dien-26-oate]
- melting point: 130 to 135 °C
- activity against C. perfringens NA (in words) (C. perfringens NA): less active; also recorded: satisfactory inhibition
- maximum inhibition against C. perfringens-NA (C. perfringens NA): 79%
- IC50 (C. perfringens NA): 123 µM
- IC50 NA-C. perfringens (C. perfringens NA): 81.78 µg/mL and 81.72 µg/mL
- activity against H1N1 NA (in words) (H1N1 NA): did not show any significant activity; also recorded: less active
- IC50 (H1N1 NA; IC50 NA-H1N1): 1920 µM

— PMC7070733 (Molecules, 2020)
